# Test results: patent publication US9988378B2, “1 H-pyrazole and 4,5-disubstituted thiazole inhibitors of SYK” (Hoffmann-La Roche Inc., priority 2012, dated 2018)
# Columns and labels:
# human whole blood = test: IC50: human whole blood; assay type: cell-based
# RAMOS = test: RAMOS_V2_IC50; assay type: cell-based; settings: Homo sapiens
# [1] = target: T1, recombinant human SYK360-635 (Homo sapiens, UniProt P43405); test: SYK kinase assay, 33P ATP filtration (ENZYME_FILTRATION_IC50); assay type: biochemical; settings: SYK aa 360-635 0.5 nM, ATP 20 μM, peptide 5 μM, 30° C. 15 min
# T1 construct: truncated construct of Spleen Tyrosine Kinase aa 360-635; made in house
# Experimental: Determination of IC50 of Spleen Tyrosine Kinase (SYK) Inhibition:
# SYK kinase assay is a standard kinase assay adapted to a 96 well plate format. This assay is performed in 96-well format for IC50 determination with […] which represented 10 half log dilutions and a 40 μL reaction volume. The assay measures the incorporation of radiolabeled ^33P ATP into an N-terminally biotinylated peptide substrate, derived from naturally occurring phosphoacceptor consensus sequence (Biotin-11aa DY*E). Phosphorylated products were detected upon termination of reactions with EDTA and the addition of Streptavidin coated beads. Representative results are in Table II above.
# Assay plates: 96-well MultiScreen 0.65 um filter plates (Millipore Cat. No.: MADVNOB10) Streptavidin coated beads: Streptavidin Sepharose™, suspension 5.0 mL, in 50 mM EDTA/PBS diluted (1:100), (Amersham, Cat. No.: 17-5113-01)
# Compounds: 10 mM in 100% dimethylsulfoxide (DMSO), final conc.: compound 0.003-100 uM in 10% DMSO
# Enzyme: SYK RPA purified, truncated construct of Spleen Tyrosine Kinase aa 360-635, stock solution 1 mg/mL, MW: 31.2 KDa, final conc.:0.0005 μM.
# Peptide 1: biotinylated peptide is derived from a naturally occurring phosphor-acceptor consensus sequence (Biotin-EPEGDYEEVLE), special order from QCB, stock solution 20 mM, final conc.: 5.0 μM.
# ATP: Adenosine-5′-triphosphate 20 mM, (ROCHE Cat. No.: 93202720), final concentration: 20 μM
# Buffer: HEPES: 2-Hydroxyethyl piperazine-2-ethanesulfonic acid (Sigma, Cat. No.: H-3375) final concentration: 50 mM HEPES pH7.5
# BSA: Bovine Serum Albumin Fraction V, fatty acid free (Roche Diagnostics GmbH, Cat. No. 9100221) diluted to a final concentration of 0.1%
# EDTA: EDTA stock solution 500 mM, (GIBCO, Cat. No.: 15575-038) final concentration: 0.1 mM
# DTT: 1,4-Dithiothreitol (Roche Diagnostics GmbH, Cat. No.: 197777), final conc.: 1 mM MgCl2×6H2O: MERCK, Cat. No.: 105833.1000, final concentration: 10 mM
# Assay Dilution Buffer (ADB): 50 mM HEPES, 0.1 mM EGTA, 0.1 mM Na Vanadate, 0.1 mM β-glycerophosphate, 10 mM MgCl2, 1 mM DTT, 0.1% BSA, pH 7.5
# Bead wash buffer: 10 g/L PBS (Phosphate buffered saline) with 2M NaCl+1% phosphoric acid.
# In 40 μL volume, 26 μL of ADB diluted, purified recombinant human SYK360-635 [0.5 nM] was mixed with 4 μL of 10× concentrations of the test compounds, [usually 100 μM-0.003 μM] in [10%] DMSO and the mixture was incubated for 10 min at RT.
# The kinase reaction was initiated by the addition of 10 μL 4× substrate cocktail containing the DYE peptide substrate [0 or 5 μM], ATP [20 μM] and ^33PγATP [2 μCi/rxn]. After incubation at 30° C. for 15 min, the reaction was terminated by the transfer of 25 μL pf the reaction sample to a 96 well 0.65 μm Millipore MADVNOB membrane/plate containing 200 μL 5 mM EDTA and 20% Streptavidine coated beads in PBS.
# The unbound radionucleotides were washed under vacuum with 3×250 μL 2M NaCl; 2×250 μL 2M NaCl+1% phosphoric acid; 1×250 μL H2O. After the last wash membrane/plates were transferred to an adaptor plate, heat dried for 15 min at 60° C., and 50 μL scintillation cocktail was added to each well and 4 h later the amount of radioactivity was counted in a top counter.
# The percent inhibition was calculated based on the uninhibited enzyme rate: % Inhibition=100/(1+(IC50/Inhibitor conc)^n)
# The IC50 was calculated using a non-linear curve fit with XLfit software (ID Business Solution Ltd., Guilford, Surrey, UK).
SMILES,IC50 (human whole blood),IC50 (RAMOS),IC50 [1]
"CC(C)(CO)NC(=O)c1c[nH]nc1-c1nc2ccccc2s1 [Compound I-7, 3-(benzo[d]thiazol-2-yl)-N-(1-hydroxy-2-methylpropan-2-yl)-1H-pyrazole-4-carboxamide]",20.4 µM,0.552 µM,0.562 µM
"C[C@@H](CO)NC(=O)c1c[nH]nc1-c1nc2ccccc2s1 [Compound I-12, (S)-3-(benzo[d]thiazol-2-yl)-N-(1-hydroxypropan-2-yl)-1H-pyrazole-4-carboxamide]",13.1 µM,4.07 µM,1.69 µM
"CC(C)(C)NC(=O)c1c[nH]nc1-c1nc(-c2ccccc2)cs1 [Compound I-16, N-tert-butyl-3-(4-phenylthiazol-2-yl)-1H-pyrazole-4-carboxamide]",> 50 µM,12.2 µM,2.41 µM
"CC(C)(C)NC(=O)c1c[nH]nc1-c1nc2c(s1)CCC2 [Compound I-18, N-tert-butyl-3-(5,6-dihydro-4H-cyclopenta[d]thiazol-2-yl)-1H-pyrazole-4-carboxamide]",> 50 µM,> 34.1 µM,6.12 µM
"O=C(NC1CCOCC1)c1c[nH]nc1-c1nc(-c2ccccc2)cs1 [Compound I-21, 3-(4-phenylthiazol-2-yl)-N-(tetrahydro-2H-pyran-4-yl)-1H-pyrazole-4-carboxamide]",> 50 µM,19.1 µM,0.209 µM
"CCOC(=O)c1c[nH]nc1-c1nc(-c2ccccc2)cs1 [Compound I-13, ethyl 3-(4-phenylthiazol-2-yl)-1H-pyrazole-4-carboxylate]",> 50 µM,> 34.1 µM,> 10 µM
"CC(C)(C)NC(=O)c1c[nH]nc1-c1nc2ccccc2s1 [Compound I-8, 3-(benzo[d]thiazol-2-yl)-N-tert-butyl-1H-pyrazole-4-carboxamide]",46.7 µM,0.146 µM,0.067 µM
"CC(C)NC(=O)c1c[nH]nc1-c1nc(-c2ccccc2)cs1 [Compound I-17, N-isopropyl-3-(4-phenylthiazol-2-yl)-1H-pyrazole-4-carboxamide]",> 50 µM,3.54 µM,0.761 µM

# These reach a lower IC50 (human whole blood). Values come first.
IC50 (human whole blood),IC50 (RAMOS),IC50 [1],SMILES
4.17 µM,6.57 µM,0.278 µM,"CC(=O)OCC(C)(C)C(=O)Nc1c[nH]nc1-c1nc2ccccc2[nH]1 [Compound I-34, Acetic acid 2-[3-(1H-benzoimidazol-2-yl)-1H-pyrazol-4-ylcarbamoyl]-2-methyl-propyl ester]"
2.6 µM,0.35 µM,0.0214 µM,"CC(C)(C)C(=O)Nc1c[nH]nc1-c1nc2ccccc2[nH]1 [Compound I-31, N-[3-(1H-Benzoimidazol-2-yl)-1H-pyrazol-4-yl]-2,2-dimethyl-propionamide]"
2.29 µM,1.02 µM,0.06 µM,"CC(C)C(=O)Nc1c[nH]nc1-c1nc2ccccc2[nH]1 [Compound I-30, N-[3-(1H-Benzoimidazol-2-yl)-1H-pyrazoll-4-yl]-isobutyramide]"
10.4 µM,1.52 µM,0.0466 µM,"Cc1ccc2[nH]c(-c3ncsc3C(=O)NC(C)(C)C)nc2c1 [Compound I-29, 4-(5-Methyl-1H-benzoimidazol-2-yl)-thiazole-5-carboxylic acid tert-butylamide]"
5.27 µM,0.615 µM,0.0389 µM,"O=C(Nc1c[nH]nc1-c1nc2ccccc2[nH]1)C1CCCC1 [Compound I-32, Cyclopentanecarboxylic acid [3-(1H-benzoimidazol-2-yl)-1H-pyrazol-4-yl]-amide]"
2.5 µM,3.08 µM,0.105 µM,"O=C(Nc1c[nH]nc1-c1nc2ccccc2[nH]1)C1CCOCC1 [Compound I-33, Tetrahydro-pyran-4-carboxylic acid [3-(1H-benzoimidazol-2-yl)-1H-pyrazol-4-yl]-amide]"
